In brackets after ≈: the same amount, converted by molar mass.
Assays:
Type in all cases: cell-based
[1] = tested on: Pseudomonas aeruginosa CIP A-22; assay: MIC in microtitre plates, Pseudomonas aeruginosa; conditions: CIPA22; Table 2; Pseudomonas aeruginosa CIP-A 22; 48 hours at 37° C.; ≦20% growth; read-out: MIC PA
Description: (§1) Determination of Antimicrobial Activity in Accordance with the Microtitre Plate Method Determination of the Minimum Inhibitory Concentration (MIC value) in Microtitre Plates casein-soybean flour-peptone bouillon for the preparation of the precultures of the test bacteria and yeast. Pseudomonas aeruginosa CIP A-22 The test substances are predissolved in dimethyl sulfoxide (DMSO) and tested in a dilution series of 1:2. Bacteria and yeast are cultured overnight in CASO bouillon, the mould on mycological slant agar and rinsed off with 10 ml of 0.85% sodium chloride solution (+0.1% TritonX-100). All test organisms are adjusted to an organism count of 1-5*10^6 CFU/ml with 0.85% sodium chloride solution. The test substances are prepipetted into microtitre plates in an amount of 8 μl per well. Previously diluted test organism suspensions are diluted 1:100 in CASO bouillon (bacteria and yeast) and Sabouraud 2% glucose bouillon (mould) and added to the test substances in an amount of 192 μl per well. The test batches are incubated for 48 hours at 37° C. (bacteria and yeast) or for 5 days at 28° C. (mould). After incubation, the growth is determined by reference to the turbidity of the test batches (optical density) at 620 nm in a microplate reader. The minimum inhibitory concentration (MIC value) is the concentration of substance at which (compared with the growth of the control) an appreciable inhibition of the growth (≦20% growth) of the test organisms is ascertained. One microtitre plate is used for each test organism and substance concentration. All substances are tested in duplicate.

[2] = tested on: Aspergillus niger ATCC 6275; assay: MIC in microtitre plates, Aspergillus niger; conditions: ATCC6275, 120 h; Table 2; Aspergillus niger ATCC 6275; 5 days at 28° C.; ≦20% growth; read-out: MIC AN
Description: as §1, with “Mycological slant agar” for “casein-soybean flour-peptone bouillon”, “preculture” for “preparation”, “moulds. Aspergillus niger ATCC 6275” for “the precultures of the test bacteria and yeast. Pseudomonas aeruginosa CIP A-22”

[3] = tested on: Escherichia coli NCTC 8196; assay: MIC in microtitre plates, Escherichia coli; conditions: NCTC8196; Table 2; Escherichia coli NCTC 8196; 48 hours at 37° C.; ≦20% growth; read-out: MIC EC
Description: as §1, with “Escherichia coli NCTC 8196” for “Pseudomonas aeruginosa CIP A-22”

[4] = tested on: Staphylococcus hominis DSM 20368; assay: MIC in microtitre plates, Staphylococcus hominis; conditions: DSM20368, Table 2, 48 hours at 37° C., ≦20% growth
Description: as §1, with “Staphylococcus hominis DSM 20328” for “Pseudomonas aeruginosa CIP A-22”

[5] = tested on: Candida albicans ATCC 10231; assay: MIC in microtitre plates, Candida albicans; conditions: ATCC10231; Table 2; Candida albicans ATCC 10231; 48 hours at 37° C.; ≦20% growth; read-out: MIC CA
Description: as §1, with “Candida albicans ATCC 10231” for “Pseudomonas aeruginosa CIP A-22”

Row | MIC [1] [µg/mL] | MIC [2] [µg/mL] | MIC [3] [µg/mL] | MIC [4] [µg/mL] | MIC [5] [µg/mL] | SMILES
1 | > 120 | 60 (≈ 195 µM) | 60 (≈ 195 µM) | > 120 | > 120 | O=C(CC(=O)c1cccc(C(F)(F)F)c1)c1ccc(O)cc1 [(110)]
2 | > 120 | > 120 | > 120 | > 120 | > 120 | O=C(CC(=O)c1cc(Br)ccc1O)c1ccccc1 [(114)]
3 | > 120 | > 120 | > 120 | > 120 | > 120 | O=C(CC(=O)c1ccc(O)cc1)c1ccccc1 [(111)]
4 | > 120 | > 120 | > 120 | > 120 | > 120 | COc1cc(C(=O)CC(=O)c2ccc(O)cc2)cc(OC)c1OC [(108)]
5 | > 120 | > 120 | > 120 | > 120 | > 120 | O=C(CC(=O)c1cccs1)c1ccc(O)cc1 [(103)]
6 | > 120 | > 120 | > 120 | > 120 | > 120 | COC(=O)c1cccc(C(=O)CC(=O)c2ccc(O)cc2)c1 [(109)]
7 | > 120 | 120 (≈ 400 µM) | 120 (≈ 400 µM) | > 120 | > 120 | COc1ccc(C(=O)CC(=O)c2ccc(O)cc2)cc1OC [(107)]
8 | > 120 | > 120 | > 120 | > 120 | > 120 | Cc1cc(O)c(C(=O)CC(=O)c2ccccc2)cc1Cl [(113)]
9 | > 120 | > 120 | > 120 | > 120 | > 120 | COc1ccccc1C(=O)CC(=O)c1ccc(O)cc1 [(105)]
10 | > 120 | > 120 | > 120 | > 120 | > 120 | Cc1ccccc1C(=O)CC(=O)c1ccc(O)cc1 [(106)]
11 | > 120 | > 120 | > 120 | > 120 | > 120 | Cc1ccc(O)c(C(=O)CC(=O)c2ccccc2)c1 [(112)]
12 | > 120 | > 120 | > 120 | > 120 | > 120 | O=C(CC(=O)c1ccccc1O)c1ccccc1 [(115)]
